These results are taken from publication PMC6627486, “Ipomoeassin F Binds Sec61α to Inhibit Protein Translocation” (Journal of the American Chemical Society, 2019).

One series has as its system HepG2 cells. The series can be described thus: Pulse-chase analysis of protein secretion in HepG2 cells. Conditions: HepG2; 100 nM Ipom-F or 42 nM mycolactone 13.5 h; 100 nM bortezomib 2 h. Format: cell-based, human. The protocol:
Pulse‐Chase Analysis of Protein Secretion in HepG2 Cells
The secretion assay was performed using a pulse–chase approach as described previously.20 HepG2 cells were treated with DMSO, 100 nM compound 8, 100 nM Ipom-F or […] mycolactone for 13.5 h before initiating the experiment, whereas pre-treatment with bortezomib 100 nM (Stratech) or 2.5 μg/ml brefeldin A were performed for 2 h and 1 h, respectively. Cells were starved in Met‐ and Cys‐free DMEM (Invitrogen) for 20 min at 37°C. Labeling was initiated by addition of fresh starvation medium containing […] [35S]Met and [35S]Cys protein labeling mix (Perkin Elmer; specific activity >1,000 Ci/mmol) for 15 min. After washing with PBS, cells were incubated in serum‐free DMEM supplemented with excess unlabeled L‐Met and L‐Cys (2 mM final concentration) for 2 h. The compounds were included throughout the starvation, pulse and chase. Secreted proteins in the media were recovered by precipitation with 13% trichloroacetic acid, washed in acetone and dissolved in 2x sample buffer. Cells were solubilized with Triton X‐100 lysis buffer (20 mM Tris, pH 7.5, 150 mM NaCl, 1% TX-100, 1 mM EDTA, 1 mM EGTA) supplemented with protease inhibitor cocktail and phenylmethylsulfonyl fluoride. Equal amounts

The subject of a further series is MCF7. As to the kind of experiment: MTT cytotoxicity assay, MCF7. Format: cell-based, human. Conditions: Homo sapiens; MCF7, 72 h, MTT; read-out: Cytotoxicity (IC50). The protocol: Two human breast cancer cell lines (MDA-MB-231 and MCF7) and one human breast non-tumorigenic epithelial cell line (MCF-10A) were maintained in a DMEM high glucose culture medium supplemented with 10% fetal bovine serum (FBS) and 2 mM L-glutamine. The cells were grown in a humidified atmosphere of 5% CO2 and 95% air at 37 °C . The culture medi um w as changed every 2–4 days depending on cell density. Cell cultures were passaged once a week using 0.125% trypsin-EDTA to detach the cells from culture flasks/dishes.
The human colorectal cancer cell line HCT116 was maintained in McCoy’s 5A (modified) medium supplemented with 10% fetal bovine serum (FBS). The human embryonic kidney (HEK293T and HEK293 FRT TRex) cell line was maintained in DMEM high glucose culture medium supplemented with 10% fetal bovine serum (FBS).
HepG2 cells were cultured in DMEM supplemented with 10% fetal bovine serum and 2 mM L-glutamine at 37°C under 5% CO2.
Viable cells were counted with a hemocytometer immediately before each experiment. Experiments were done in triplicate. First, 100 μL of MCF7 cells at the density of 50,000 cells/mL were seeded in a 96-well plate (5,000 cells/well), which was incubated at 37 °C and 5% CO2 atmosphere for 24 h. The compounds were dissolved in DMSO (dimethyl sulfoxide) to make drug stocks (10 mM). The stock solutions were diluted with the complete DMEM high glucose culture medium to make a series of gradient fresh working solutions right before each test. Subsequently, the cells were treated with 100 μL of the freshly made gradient working solution in a total volume of 200 μL/well for 72 h. After that, the media were discarded and 200 μL of the fresh complete medium containing 10% of MTT stock solution (5 mg/mL) was added to each well. The plate was then incubated at 37 °C and 5% CO2 for 3 h. Next, 180 μL of the medium was discarded from each well , and 180 μL of DMSO was added to each well to dissol ve formazan crystals. Absorbance of formazan was detected by a microplate reader (BioTek Synergy H1) at 570 nm with 650 nm as the reference wavelength. The percentage of viability compared to the negative control (DMSO-treated cells) was determined . GraphPad Prism 6 software was used to make a plot of %

Another series has as its system MDA-MB-231. The series can be described thus: AlamarBlue cytotoxicity assay, MDA-MB-231. Conditions: Homo sapiens; MDA-MB-231, 72 h, AlamarBlue; read-out: Cytotoxicity (IC50). Format: cell-based, human. The method, then: (§1) AlamarBlue Cytotoxicity Assay
(§2) MDA-MB-231, MCF-10A and HCT116. Viable cells were counted with a hemocytometer immediately before each experiment . Experiments were done in triplicate. First, 100 μL of MDA-MB-231 cells or MCF-10A cells at the density of 50,000 cells/mL was seeded in a 96-well plate (5,000 cells/well) and then incubated at 37 °C and 5% CO2 for 24 h. The compounds were dissolved in DMSO (dimethyl sulfoxide) to make drug stocks (10 mM). The stock solutions were diluted with the complete DMEM high glucose culture medium to make a series of gradient fresh working solutions right before each test. Subsequently, the cells were treated with 100 μL of the freshly made gradient working solution in a total volume of 200 μL/well for 72 h. After that, the media were discarded and 200 μL of the fresh complete medium containing 10% of AlamarBlue (resazurin) stock solution was added to each well. The plate was then incubated at 37 °C and 5% CO2 for another 3 h. Emission of each well at 620 nm was detected by a microplate reader (BioTek Synergy H1) at excitation 580 nm. […]
(§3) Microplate Reader. The percentage of viability compared to the negative control (DMSO-treated cells) […]
(§4) was determined. […]
(In general: Resazurin is reduced to fluorescent resorufin, in cell work by metabolically active cells.)

The nature of series [1]: AlamarBlue cytotoxicity assay, MCF-10A. Format: cell-based, human. Conditions: human, 72 h. The method, then: as §1, §2, §3, §4
For another series, the system named is HCT116. The series can be described thus: cells. Format: cell-based. Conditions: Homo sapiens, HCT-116; HCT116, 72 h, Alamar Blue, assayed separately; read-out: Cytotoxicity (IC50). The method, then:
as §1
as §2, with “nm. For HCT116 WT and mutant lines, cells were seeded at 1000 cells/ well in complete McCoys medium. Compounds were diluted from a DMSO stock into culture medium as described above. Cells were treated for 96 h, then viability measured with AlamarBlue, detected using the conditions described but with a BMG Fluostar Optima Microplate Reader. The percentage of viability compared to the negative control (DMSO-treated cells) was determined.” for “nm.”
HCT116 and HEK293T. Viable cells were counted using an automated cell counter (BioRad TC20) before each experiment. […] Emission of each well at 620 nm was detected by a microplate reader (Perkin Elmer EnSpire) at excitation 580 nm. The percentage of viability compared to the negative control (DMSO -treated cells) was determined. […]
Figure S1. […] (C) HCT116 colon carcinoma cells were treated with increasing concentrations of analogues 8, 14, 15, CT8, ipomoeassin F or carrier (0.1% DMSO) and cell viability was assessed at 72 h by the Alamar Blue assay (mean ± S.D., n = 4). […]

The next series deals with HCT-116 cells. As to the kind of experiment: Metabolic labelling of nascent proteins in HCT116 cells. Format: cell-based, human. Conditions: HCT-116, 1 μM, 35S labelling. The method, then: Metabolic Labelling Assays in HCT116 Cells
HCT116 cells were counted using an automated cell counter (BioRad TC20) immediately prior to each experiment. 3 ml of HCT116 cells at a density of 0.166x10^6 cells/mL were seeded to 6-well plates (0.5x10^6 cells/well) and then incubated at 37 °C and 5% CO 2 for 24 h. The compounds were dissolved in DMSO to make drug stocks (10 mM). The stock solutions were diluted with DMEM high glucose culture medium lacking methionine and cysteine to make a fresh working solution immediately prior to each test. Cells were washed twice and 1ml of fresh DMEM lacking methionine and cysteine was added to each well.
Subsequently, the cells were treated with 250 µl of compound solutions in a total volume of 1 ,250 µl/well.
The plate was then incubated at 37 °C and 5% CO 2 for 30 min before 100 µCi 35S-labelled methionine/cysteine was added (Expre35s35s protein labelling mix). Plates were incubated for a further 30 min, then media collected and cells harvested by scraping after four washes in ice-cold PBS. Total protein was acquired by RIPA extraction from the cell pellet, cytoplasmic fraction was acquired by partial permeabilization of the outer cell membranes with 0.15% Digitonin followed by centrifugation, secreted proteins were acquired by TCA precipitation of the media. […]

Molecules are shown by their SMILES.

`CC(C)C[C@H](NC(=O)[C@H](Cc1ccccc1)NC(=O)c1cnccn1)B(O)O` [bortezomib, reference compound]: the “secretory proteins in cell media” value in the series with HepG2 cells is “had no effect”.
For `C#CCOc1ccc(/C=C/C(=O)O[C@@H]2[C@@H](O)[C@@H]3O[C@H]4[C@H](O[C@@H](CCCCC)CCCCCCC(=O)CCC(=O)OC[C@@H](O3)[C@H]2OC(=O)/C(C)=C/C)O[C@H](C)[C@H](OC(C)=O)[C@@H]4O)cc1` [compound 3], the half-maximal inhibitory concentration (IC50) (in general, the concentration needed to halve the response being measured) in the series on MCF7 came to 22.2 nM; in the series on MDA-MB-231, 6.3 nM; in series [1] it was 9.6 nM.
For `CCCCC[C@H]1CCCCCCC(=O)CCC(=O)OC[C@H]2O[C@@H](O[C@H]3[C@H](O1)O[C@H](C)[C@H](OC(C)=O)[C@@H]3O)[C@H](O)[C@@H](OC(=O)C(C)CC)[C@@H]2OC(=O)/C=C/c1ccccc1` (stereo partly drawn) [compound 15], the IC50 with HCT116 was determined as 480 nM. Further, the “inhibition of production of secreted proteins compared with ipomoeassin F” value in the series on HCT-116 cells was “less potently”.
For `C/C=C(\C)C(=O)O[C@@H]1[C@@H](O)[C@@H]2O[C@H]3[C@H](O[C@@H](CCCCC)CCCCCCC(=O)CCC(=O)OC[C@@H](O2)[C@H]1OC(=O)/C=C/c1ccc(OCc2cn(CCOCCOCCOCCNc4ccc([N+](=O)[O-])c5nonc45)nn2)cc1)O[C@H](C)[C@H](OC(C)=O)[C@@H]3O` [compound 11], the 50% inhibitory concentration (IC50) turned out to be 21.1 nM in the series with MCF7, 2.8 nM in the series on MDA-MB-231 and 2 nM in series [1].
As for `C/C=C(\C)C(=O)O[C@@H]1[C@@H](O)[C@@H]2O[C@H]3[C@H](O[C@@H](CCCCC)CCCCCCC(=O)CCC(=O)OC[C@@H](O2)[C@H]1OC(=O)/C=C/c1ccc(OCc2cn(-c4cc5ccc(O)cc5oc4=O)nn2)cc1)O[C@H](C)[C@H](OC(C)=O)[C@@H]3O` [compound 10], the IC50 in the series with MCF7 is 172 nM; in the series on MDA-MB-231 it was 8.9 nM; in series [1] it was 11.3 nM.
